Source: US20220193209A1, “COMPOSITIONS AND METHODS FOR REACTIVATING LATENT IMMUNODEFICIENCY VIRUS AND/OR TREATING IMMUNODEFICIENCY VIRUS INFECTION” (The J. David Gladstone institutes, a testamentary trust …, priority 2019, published 2022)

Columns and labels:
FOXO1 = target: T1, FOXO1 (Homo sapiens, UniProt Q12778); experiment: Cellular Thermal Shift Assay (CETSA) in K562 cells, FOXO1; type: binding; conditions: 1 μM
T1 construct: performed against the FOXO isoforms expressed in K562 cells; endogenous in cells; host or cells: K562
T1 sequence (Q12778 whole entry, canonical isoform): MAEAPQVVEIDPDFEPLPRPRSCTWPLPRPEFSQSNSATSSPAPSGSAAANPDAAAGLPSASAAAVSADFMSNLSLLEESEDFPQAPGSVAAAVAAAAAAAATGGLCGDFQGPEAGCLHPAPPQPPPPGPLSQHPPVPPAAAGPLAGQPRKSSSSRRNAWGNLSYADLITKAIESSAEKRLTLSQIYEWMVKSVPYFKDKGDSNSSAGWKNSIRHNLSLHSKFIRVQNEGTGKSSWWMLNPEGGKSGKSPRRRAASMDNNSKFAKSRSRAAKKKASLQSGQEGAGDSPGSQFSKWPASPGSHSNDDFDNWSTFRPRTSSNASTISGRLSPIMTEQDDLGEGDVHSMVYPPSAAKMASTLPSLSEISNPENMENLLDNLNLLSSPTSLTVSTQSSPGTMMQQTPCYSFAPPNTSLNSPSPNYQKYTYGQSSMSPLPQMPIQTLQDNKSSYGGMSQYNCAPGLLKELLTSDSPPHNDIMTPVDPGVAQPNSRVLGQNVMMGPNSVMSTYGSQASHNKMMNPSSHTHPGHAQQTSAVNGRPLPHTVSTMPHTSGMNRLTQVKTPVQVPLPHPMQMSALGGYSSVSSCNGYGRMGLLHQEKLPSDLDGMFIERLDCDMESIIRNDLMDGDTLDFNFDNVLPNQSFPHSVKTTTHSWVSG
Description: K562 cells (ATCC) were maintained in appropriate volume of RPMI medium supplemented with 10% fetal bovine serum (Serum Plus—II, Sigma MO, USA), 100 units/mL penicillin and 100 […] (Corning, VA, USA). Short-term passages (<15) were used for all experiments. For CETSA, K562 cell were freshly seeded the day before the experiment. The day of experiment, equal numbers of cells were counted by Moxi Mini automated cell counter (Orflo) and 0.6×10^6 cells per data point were seeded in T-25 cell culture flasks (VWR, PA, USA) in appropriate volume of culture medium. Cells were exposed to […] AS1842856 or equal volume DMSO for 3 hours in an incubator with 5% CO2 and 37° C. […] The supernatants were transferred to new microcentrifuge tubes and analyzed by SDS-PAGE followed by immunoblotting analysis. […] Immunoblotting results were subjected to densitometric analysis (Image J) and melting temperatures of FOXO1, FOXO3 and FOXO4 were determined by Prism 7 (GraphPad) using nonlinear least-squares regression fit to Y=100/(1+10^(Log IC50−X)*H), where H=Hill slope (variable). The viability of the cells was assessed in triplicate by trypan blue exclusion. […]
Briefly, K562 cells were treated with increasing concentrations of the FOXO1 inhibitor AS1842856 just after HIVGKO infection. After 3-4 days, the percentage of latent cells and productive cells were quantified by FACS. […]

[1] = tested on: latent HIV-1 provirus in J-Lat cells; experiment: HIV-GFP reactivation in J-Lat cell lines (RT-qPCR, FACS); type: cell-based
Description: Total RNA from samples was extracted using the Direct-zol RNA kit (R2060; Zymogen). cDNA was generated using 500 ng for CD4^+ T cells or 1000 ng of total RNA for J-Lats with Superscript III Reverse transcription (18080-044; ThermoFisher) and oligo(dT) (18418-012; ThermoFisher). Quantitative RT-PCR was carried out using Maxima SYBR Green qPCR Master Mix (Thermo Scientific) on SDS 2.4 software (Applied Biosystems) in a total volume of 12 μL. The SYBR green qPCR reactions contained 5 μl of 2× Maxima SYBR green/Rox qPCR Master Mix (K0221; ThermoFisher), 5 μl of diluted cDNA, and 1 nmol of both forward and reverse primers. The reactions were run using the following conditions: 50° C. for 2 min and 95° C. for 10 min, followed by 40 cycles of 95° C. for 5 s and 62° C. for 30 s. See Table 1 below for a qRT-PCR primer list. […] Dissociation curve analysis was performed after the end of the PCR to confirm the presence of a single and specific product. All qPCRs were independently repeated at least three times, averaged and compared using standard deviation (±SD).
The J-Lat clonal cell lines are Jurkat cells that contain a stably integrated, latent HIV-1 (HXB) Δenv provirus with a GFP reporter gene in place of the nef gene (Jordan, A. et al. EMBO J. 22, 1868-1877 (2003)). In this system, reactivation from established latency can be monitored through GFP expression.
HIV-GFP mRNA reactivation was assessed by RT-qPCR and normalized to RPL13A mRNA. Data represent average SD of three independent experiments. p-value relative to the control at each time point. FIG. 3, Panel B, depicts cell viability assessed by flow cytometry at 72 h of the same experiment as in A. Cell viability was measured by gating on both the live population at the forward scatter (FSC) and side scatter (SSC) plot and then the viable cells after staining with the viability dye. […] HIV-GFP reactivation (bars) and cell viability (dots) were analyzed by FACS. HIV-GFP reactivation is reported as a percentage of GFP-expressing cells (% GFP+ cells). Data represent average f SD of at least three independent experiments. FIG. 3, Panel D, depicts the same experiments as in FIG. 3, Panel C, but performed in different J-Lat cell lines 5A8, 6.3, 11.1 and 15.4. Data represent average f SD of at least three independent experiments. 10 ng/mL TNFα was used as control. […] Calculation of synergy for drug combinations using the Bliss independence model applied to the HIV-GFP reactivation measured as a percentage of GFP-expressing cells (% GFP+ cells).
Chromatin was prepared from J-Lat A2 and 5A8 cells, in which the LTR was stimulated by 1000 nM AS1842856 treatment, TNFα or which were left untreated/DMSO. […] HIV-GFP reactivation was analyzed by FACS and relativized to the control condition. […] Data represent average SD of 3-6 independent experiments. […] HIV-GFP reactivation was analyzed by FACS. […] HIV-GFP reactivation and cell viability were analyzed by FACS. Data were mean±SD of three independent experiments.

`CCn1cc(C(=O)O)c(=O)c2c(N)c(F)c(NC3CCCCC3)cc21` [AS1842856, 5-amino-7-(cyclohexylamino)-1-ethyl-6-fluoro-4-oxo-1,4-dihydro-quinoline-3-carboxylic acid] was tested, and the “shift in FOXO1 melting curve” value (FOXO1) was 7.23 °C, the “HIV-driven GFP expression (flow cytometry)” value ([1]; J-Lat A2 cells (contain Tat)) was “increased GFP expression” and the “HIV-driven GFP expression (flow cytometry)” value ([1]; J-Lat A72 cells (no Tat)) was “increased GFP expression”. The “HIV reactivation (percentage of GFP+ cells, median fluorescence intensity)” value ([1]; four J-Lat clonal cell lines, 72 hours) was “reactivated HIV in each cell line”.
